Measured values published in ChEMBL document CHEMBL1201862, “PubChem BioAssay data set” (2004).
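Briefly, cells in 96-well plates were exposed to five compound concentrations for 48 h, and endpoints were estimated by linear interpolation. GI50 marks 50% less growth.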 Activity calls are given as the source filed them. No stated cut-off is given here; in the data, active = GI50 up to about 1.1 µM and inactive = higher.

How the values were obtained:
Assay in all cases: DTP human tumour cell line panel, 48 h
PC-3 = system: PC-3
SK-MEL-28 = system: SK-MEL-28
EKVX = system: EKVX
COLO 205 = system: COLO 205
OVCAR-4 = system: OVCAR-4
HOP-92 = system: HOP-92
UO-31 = system: UO-31
SR = system: SR
SN12C = system: SN12C
UACC-62 = system: UACC-62
NCI-H23 = system: NCI-H23
OVCAR-8 = system: OVCAR-8
OVCAR-3 = system: OVCAR-3
SK-MEL-2 = system: SK-MEL-2
NCI-H522 = system: NCI-H522
A498 = system: A498
TK-10 = system: TK-10
HCC 2998 = system: HCC 2998
NCI/ADR-RES = system: NCI/ADR-RES
CAKI-1 = system: CAKI-1
NCI-H226 = system: NCI-H226
CCRF-CEM = system: CCRF-CEM
HL-60 = system: HL-60
A549 = system: A549
OVCAR-5 = system: OVCAR-5
SNB-19 = system: SNB-19
SK-OV-3 = system: SK-OV-3
LOX IMVI = system: LOX IMVI
HCT-15 = system: HCT-15
HOP-62 = system: HOP-62
T47D = system: T47D
SW-620 = system: SW-620
M14 = system: M14
SNB-75 = system: SNB-75
RPMI-8226 = system: RPMI-8226
UACC-257 = system: UACC-257
IGROV-1 = system: IGROV-1
ACHN = system: ACHN
MDA-N = system: MDA-N
Hs-578T = system: Hs-578T
U-251 = system: U-251
SF-295 = system: SF-295
SF-268 = system: SF-268
786-0 = system: 786-0
Malme-3M = system: Malme-3M
HT-29 = system: HT-29
KM12 = system: KM12
SF-539 = system: SF-539
DU-145 = system: DU-145
NCI-H460 = system: NCI-H460
MCF7 = system: MCF7
HCT-116 = system: HCT-116
SK-MEL-5 = system: SK-MEL-5
MDA-MB-435 = system: MDA-MB-435
K562 = system: K562
MOLT-4 = system: MOLT-4
MDA-MB-231 = system: MDA-MB-231

Question: For `CCC1(O)CC(OC2CC(N(C)C)C(OC3CC(O)C(OC4OC(C)C(=O)C=C4N)C(C)O3)C(C)O2)c2c(O)c3c(c(O)c2C1C(=O)OC)C(=O)c1cccc(O)c1C3=O` (stereo unspecified), which GI50 (PC-3) is on record?
Answer: 5.35 nM (active)

Question: And the GI50 (SK-MEL-28)?
Answer: 10.5 nM (active)

Question: And the GI50 (EKVX)?
Answer: 10.3 nM (active)

Question: And the GI50 (COLO 205)?
Answer: 3.76 nM (active)

Question: And the GI50 (OVCAR-4)?
Answer: 10 nM (active)

Question: What about the GI50 (HOP-92) of the same compound?
Answer: 16.4 nM (active)

Question: And the GI50 (UO-31)?
Answer: 47.2 nM (active)

Question: And the GI50 (SR)?
Answer: 4.13 nM (active)

Question: And the GI50 (SN12C)?
Answer: 25.9 nM (active)

Question: What about the GI50 (UACC-62) of the same compound?
Answer: 10.6 nM (active)

Question: And the GI50 (NCI-H23)?
Answer: 18.9 nM (active)

Question: And the GI50 (OVCAR-8)?
Answer: 3.98 nM (active)

Question: What about the GI50 (OVCAR-3) of the same compound?
Answer: 22.5 nM (active)

Question: What about the GI50 (SK-MEL-2) of the same compound?
Answer: 9.27 nM (active)

Question: And the GI50 (NCI-H522)?
Answer: 12.1 nM (active)

Question: And the GI50 (A498)?
Answer: 1.05 nM (active)

Question: And the GI50 (TK-10)?
Answer: 16.8 nM (active)

Question: And the GI50 (HCC 2998)?
Answer: 30.2 nM (active)

Question: And the GI50 (NCI/ADR-RES)?
Answer: 91.6 nM (active)

Question: What about the GI50 (CAKI-1) of the same compound?
Answer: 4.89 nM (active)

Question: What about the GI50 (NCI-H226) of the same compound?
Answer: 13.9 nM (active)

Question: And the GI50 (CCRF-CEM)?
Answer: 2.84 nM (active)

Question: What about the GI50 (HL-60) of the same compound?
Answer: 1.54 nM (active)

Question: And the GI50 (A549)?
Answer: 3.56 nM (active)

Question: What about the GI50 (OVCAR-5) of the same compound?
Answer: 7.92 nM (active)

Question: What about the GI50 (SNB-19) of the same compound?
Answer: 9.29 nM (active)

Question: What about the GI50 (SK-OV-3) of the same compound?
Answer: 2.74 nM (active)

Question: And the GI50 (LOX IMVI)?
Answer: 11.5 nM (active)

Question: And the GI50 (HCT-15)?
Answer: 41.8 nM

Question: What about the GI50 (HOP-62) of the same compound?
Answer: 23.9 nM (active)

Question: And the GI50 (T47D)?
Answer: 11.8 nM (active)

Question: And the GI50 (SW-620)?
Answer: 2.25 nM (active)

Question: What about the GI50 (M14) of the same compound?
Answer: 10 nM (active)

Question: What about the GI50 (SNB-75) of the same compound?
Answer: 31.1 nM (active)

Question: What about the GI50 (RPMI-8226) of the same compound?
Answer: 3.14 nM (active)

Question: What about the GI50 (UACC-257) of the same compound?
Answer: 8.36 nM (active)

Question: What about the GI50 (IGROV-1) of the same compound?
Answer: 3.54 nM (active)

Question: And the GI50 (ACHN)?
Answer: 4.18 nM (active)

Question: And the GI50 (MDA-N)?
Answer: 4.8 nM (active)

Question: And the GI50 (Hs-578T)?
Answer: 30.9 nM (active)

Question: And the GI50 (U-251)?
Answer: 3.36 nM (active)

Question: What about the GI50 (SF-295) of the same compound?
Answer: 1.34 nM (active)

Question: What about the GI50 (SF-268) of the same compound?
Answer: 92.5 nM (active)

Question: And the GI50 (786-0)?
Answer: 2.1 nM (active)

Question: What about the GI50 (Malme-3M) of the same compound?
Answer: 11.4 nM (active)

Question: And the GI50 (HT-29)?
Answer: 4.75 nM (active)

Question: And the GI50 (KM12)?
Answer: 3.2 nM (active)

Question: And the GI50 (SF-539)?
Answer: 7.59 nM (active)

Question: What about the GI50 (DU-145) of the same compound?
Answer: 6.86 nM (active)

Question: And the GI50 (NCI-H460)?
Answer: 0.452 nM (active)

Question: And the GI50 (MCF7)?
Answer: 2 nM (active)

Question: And the GI50 (HCT-116)?
Answer: 0.617 nM (active)

Question: And the GI50 (SK-MEL-5)?
Answer: 4.17 nM (active)

Question: And the GI50 (MDA-MB-435)?
Answer: 3.71 nM (active)

Question: And the GI50 (K562)?
Answer: 0.196 nM (active)

Question: What about the GI50 (MOLT-4) of the same compound?
Answer: 2.31 nM (active)

Question: What about the GI50 (MDA-MB-231) of the same compound?
Answer: 58.3 nM (active)

Question: With `CSCCC(NC(=O)OCc1ccccc1)P(=O)(O)c1ccccc1` (stereo unspecified) as the compound, how does the GI50 (PC-3) read?
Answer: > 100000 nM (inactive)

Question: And the GI50 (SK-MEL-28)?
Answer: > 100000 nM (inactive)

Question: What about the GI50 (COLO 205) of the same compound?
Answer: > 100000 nM (inactive)

Question: And the GI50 (OVCAR-4)?
Answer: > 100000 nM (inactive)

Question: And the GI50 (HOP-92)?
Answer: > 100000 nM (inactive)

Question: And the GI50 (UO-31)?
Answer: > 100000 nM (inactive)

Question: And the GI50 (SR)?
Answer: > 100000 nM (inactive)

Question: And the GI50 (SN12C)?
Answer: > 100000 nM (inactive)

Question: What about the GI50 (NCI-H23) of the same compound?
Answer: > 100000 nM (inactive)

Question: What about the GI50 (OVCAR-8) of the same compound?
Answer: > 100000 nM (inactive)

Question: What about the GI50 (OVCAR-3) of the same compound?
Answer: > 100000 nM (inactive)

Question: What about the GI50 (SK-MEL-2) of the same compound?
Answer: > 100000 nM (inactive)

Question: What about the GI50 (NCI-H522) of the same compound?
Answer: > 100000 nM (inactive)

Question: And the GI50 (TK-10)?
Answer: > 100000 nM (inactive)

Question: What about the GI50 (HCC 2998) of the same compound?
Answer: > 100000 nM (inactive)

Question: And the GI50 (NCI/ADR-RES)?
Answer: > 100000 nM (inactive)

Question: And the GI50 (CAKI-1)?
Answer: > 100000 nM (inactive)

Question: And the GI50 (NCI-H226)?
Answer: > 100000 nM (inactive)

Question: And the GI50 (CCRF-CEM)?
Answer: > 100000 nM (inactive)

Question: And the GI50 (HL-60)?
Answer: > 100000 nM (inactive)

Question: And the GI50 (A549)?
Answer: > 100000 nM (inactive)

Question: What about the GI50 (OVCAR-5) of the same compound?
Answer: > 100000 nM (inactive)

Question: What about the GI50 (SNB-19) of the same compound?
Answer: > 100000 nM (inactive)

Question: And the GI50 (SK-OV-3)?
Answer: > 100000 nM (inactive)

Question: And the GI50 (LOX IMVI)?
Answer: > 100000 nM (inactive)

Question: What about the GI50 (HCT-15) of the same compound?
Answer: > 100000 nM

Question: And the GI50 (HOP-62)?
Answer: > 100000 nM (inactive)

Question: And the GI50 (T47D)?
Answer: > 100000 nM (inactive)

Question: And the GI50 (SW-620)?
Answer: > 100000 nM (inactive)

Question: What about the GI50 (M14) of the same compound?
Answer: > 100000 nM (inactive)

Question: What about the GI50 (SNB-75) of the same compound?
Answer: > 100000 nM (inactive)

Question: What about the GI50 (RPMI-8226) of the same compound?
Answer: > 100000 nM (inactive)

Question: What about the GI50 (UACC-257) of the same compound?
Answer: > 100000 nM (inactive)

Question: What about the GI50 (IGROV-1) of the same compound?
Answer: > 100000 nM (inactive)

Question: What about the GI50 (ACHN) of the same compound?
Answer: > 100000 nM (inactive)

Question: And the GI50 (MDA-N)?
Answer: > 100000 nM (inactive)

Question: What about the GI50 (Hs-578T) of the same compound?
Answer: > 100000 nM (inactive)

Question: What about the GI50 (U-251) of the same compound?
Answer: > 100000 nM (inactive)

Question: What about the GI50 (SF-295) of the same compound?
Answer: > 100000 nM (inactive)

Question: And the GI50 (HT-29)?
Answer: > 100000 nM (inactive)

Question: What about the GI50 (DU-145) of the same compound?
Answer: > 100000 nM (inactive)

Question: What about the GI50 (NCI-H460) of the same compound?
Answer: > 100000 nM (inactive)

Question: And the GI50 (MCF7)?
Answer: > 100000 nM (inactive)

Question: And the GI50 (HCT-116)?
Answer: > 100000 nM (inactive)

Question: What about the GI50 (SK-MEL-5) of the same compound?
Answer: > 100000 nM (inactive)

Question: What about the GI50 (MDA-MB-435) of the same compound?
Answer: > 100000 nM (inactive)

Question: What about the GI50 (K562) of the same compound?
Answer: > 100000 nM (inactive)

Question: What about the GI50 (MOLT-4) of the same compound?
Answer: > 100000 nM (inactive)

Question: And the GI50 (MDA-MB-231)?
Answer: > 100000 nM (inactive)
